Usually IC50 stands for the concentration that inhibits the measured activity by half.

Where a name gives a salt, the structure may show the parent alone.

Test [1] concerns HUVEC sprouting. Briefly: Primary angiogenesis screen, HUVEC spheroid evaluation (EC sprouting). The format is cell-based, human. Particulars: HUVEC spheroids in collagen gel, VEGF-supplemented, 24 hours. The procedure: A test substance was selected for evaluation in angiogenesis screens. The test substance was synthesized or obtained as appropriate and stored at −20° C. in DMSO. Prior to use, the test substance was thawed and 5 mM of the substance was diluted to a 10 fold concentrated working solution (100 μM) in endothelial cell basal medium. The basal medium fraction was supplemented with 25 ng VEGF/100 μl for the stimulation of HUVEC sprouting.
The screening procedures were modified versions of those described by Korff and Augustin (J Cell Sci 112: 3249-58, 1999). By way of summary, spheroids were prepared by pipetting 400 human umbilical vein endothelial cells (HUVEC) into each well of nonadhesive 96-well plates. Prior to use the HUVEC were cultured according to the supplier's instructions (PromoCell, Heidelberg, Germany). The cells were allowed to aggregate overnight into spheroids (Korff and Augustin: J Cell Biol 143: 1341-52, 1998). After aggregation, 48 HUVEC spheriods were harvested. Each harvested spheroid was seeded in 900 μl of methocel-collagen solution and pipetted into an individual well of a 24-well plate to allow collagen gel polymerization.
(§1) Thirty (30) minutes after seeding, the test substance was added. The working dilution (10 fold concentration) was utilized, 100 μl was pipetted on top of the polymerized collagen gel in each well. The plates were then incubated at 37° C. for 24 hours. At the end of the incubation period the plates were fixed by adding 1 ml paraformaldehyde (10%) to each well.
The HUVEC spheriods were microscopically assayed for endothelial cell (EC) sprouting intensity. The degree of EC sprouting was classified into one of four groups by comparing the degree of sprouting to that observed in VEGF control cells. […] For exemplary results, see FIG. 1.

Test [2] deals with NHDF (human dermal fibroblasts) scattering. Nature of the test: NHDF spheroid evaluation (fibroblast scattering). The format is cell-based. How it is done: Where the test compound was classified as an inhibitor or stimulator, a second screening process was performed. In the second screen, the test substance was thawed and 5 mM of the substance was diluted to a 10 fold concentrated working solution (100 μM) in endothelial cell basal medium. No supplements were used in the basal medium.
Instead of HUVEC, spheroids were prepared by pipetting 400 human dermal fibroblasts (NHDF) into each well of nonadhesive 96-well plates. Prior to use the NHDF were cultured according to the supplier's instructions (PromoCell, Heidelberg, Germany). The cells were allowed to aggregate overnight into spheroids (Korff and Augustin: J Cell Biol 143: 1341-52, 1998). After aggregation, 48 NHDF spheroids were harvested. Each of the harvested spheroids was seeded in 900 μl of methocel-collagen solution and pipetted into an individual well of a 24-well plate to allow collagen gel polymerization.
as §1
The NHDF spheroids were microscopically assayed for fibroblast scattering intensity. […] For exemplary results, see FIG. 1.

In test [3] the test system is HDMEC. Nature of the test: Cell proliferation assay (crystal violet), HDMEC. In kind it is cell-based. The conditions noted are these: 72 hours, OD 595 nm. How it is done: (§2) In order to further confirm the surprising results described above, the compounds were tested in a cell proliferation assay. Crystal violet was used to measure cell proliferation; this basic dye stains cell nuclei and provides a sensitive, rapid evaluation. Light absorption of unstained or destained cell layers is negligible, making it possible to perform cell number measurements in wells. Six cell types (HUVEC, HDMEC, SMC, Fibroblast, A375 and RENCA) were plated and treated with the compounds in a log2 titration for 72 hours. The optimal cell number for each cell type was determined and optical density (OD) was measured at 595 nm. Each data point was measured in quadruplicate. The assay was stopped after 72 hours and subsequently analyzed. The OD-value of the plated cells before addition of the compounds was subtracted from all OD-values obtained after treatment. The percentage in relation to control proliferation was then calculated. Negative values therefore represent a count of fewer cells than were plated. The IC50 is given below in Table 1. Results are shown as a percentage in relation to the control proliferation. The IC50 were calculated using GraphPad Prism software (GraphPad Software, Inc.). Perhexiline results are depicted graphically in FIGS. 4A-4C and Erythromycin results in FIGS. 5A-5C.

Test [4] concerns Fibroblast. Briefly: Cell proliferation assay (crystal violet), Fibroblast. The format is cell-based. Particulars: 72 hours, OD 595 nm. The procedure: as §2
Test [5] has as its system A375. Briefly: Cell proliferation assay (crystal violet), A375. In kind it is cell-based. Particulars: Homo sapiens, A-375, 72 hours, OD 595 nm. The procedure:
as §2

Test [6] deals with HDMEC. Briefly: Cytoviability assay (resazurin), HDMEC. The format is cell-based. The conditions noted are these: 24 hours after treatment, read-out: IC50 cell viability HDMEC. How it is done:
(§3) A cell viability assay based on cellular reduction of resazurin to the fluorescent product resorufin was performed. Viable cells can metabolize and reduce the dye, whereas dead cells rapidly lose the capacity to do so, making the increase in fluorescence directly proportional to the number of viable cells. The tested compounds were added in a log2 titration and viable cells were analyzed 24 hours after treatment. The fluorescence was determined at an excitation wavelength of 560 nm and an emission wavelength of 590 nm. The percentage of viable cells in relation to the untreated control proliferation was calculated. […] Perhexiline results are depicted graphically in FIGS. 6A-6C and Erythromycin results in FIGS. 7A-7C.

Test [7] concerns Fibroblast. Briefly: Cytoviability assay (resazurin), Fibroblast. The format is cell-based. Particulars: 24 hours after treatment, read-out: IC50 cell viability Fibroblast. How it is done: as §3
A general note: Alamar Blue is a resazurin reagent that responds to reducing activity.

Test [8] has as its system RENCA. Nature of the test: Cytoviability assay (resazurin), RENCA. In kind it is cell-based. The conditions noted are these: 24 hours after treatment, read-out: IC50 cell viability RENCA. How it is done: as §3
Test [9] relates to B16F10 cells. Briefly: Cell viability of B16F10 cells. In kind it is cell-based. Particulars: Mus musculus, B16-F10; after 24 and 48 hours incubation. How it is done:
as §3
Through the two aforementioned assays it was determined that RENCA cells are more sensitive when treated with Perhexiline than the other cell types in the proliferation assay and in the viability assay. Therefore, the B16F10 cells were subsequently tested. The B16F10 tumor model, like the RENCA model, is an orthotopic tumor model.

The test system of test [10] is Alexander cells (PLC/PRF/5) subcutaneous tumor. Briefly: Hepato-Cellular Carcinoma Model (HCC) in vivo study, subcutaneous Alexander cells. Also on record: species or system NMRI nu/nu mice.
Procedure: Monolayers of Alexander cells can be grown in 85% Dulbecco's Modified Eagle's Medium (DMEM), 15% Fetal Bovine Serum (FBS), 4 mM L-glutamine, 100 units penicillinG/ml, and 100 μg of streptomycin-sulfate/ml. The cells can be cultured in a humidified atmosphere of 90% air and 10% carbon dioxide at 37° C. Media may preferably be changed every 4 days.
Six to eight week old female NMRI^−nu/nu mice could be utilized. The Alexander cells can be implanted in the left flank region of the mice, for example, by injecting 4×10^7 cells in 0.2 ml aliquots into the subcutaneous space of the left flank using a 29 G needle syringe. After inoculation the appearing subcutaneous tumours can be measured by callipering and multiplying the distances of all three dimensions.
Therapy can be initiated after the tumor size has reached a volume of approximately 100 mm^3 (day 1 of the study), and continue for about 21 days.
As shown, Group 1 would serve as control, where the animals would receive no further treatment after injection of Alexander cells.
After approximately 21 days of treatment, mice could be sacrificed and tumors collected and optionally stored appropriately at −80° C. For histological examination of the tumor vasculature, cryosections of the tissues (thickness of 5-10 μm) can be taken. For visualization of the blood vessels, immunohistochemical staining for CD 31 (PECAM-1) can be performed, and vessels counted microscopically using a defined magnification (×200).

In the case of `C1CCC(C(CC2CCCCN2)C2CCCCC2)CC1` (stereo not drawn) [Perhexiline, Perhexiline maleate], the “EC sprouting intensity compared with VEGF control” value in test [1] is listed as “sprouting inhibition”. For the same molecule, the IC50 was 19 µM in [2] (Homo sapiens, NHDF); 11 µM in test [3]; 12 µM in [4]; 25 µM in [5]; 8 µM in test [6]; 5.2 µM in test [7]. Besides, the IC50 in test [8] was found to be 5 µM; in [9], 10 µM. The “fibroblast scattering (invasion) effect” value in test [2] (NHDF spheroids in collagen gel, no supplements, 24 hours) was “no fibroblast invasion effect”. Further, in [10] (subcutaneous Alexander cell tumors in mice, about 21 days of treatment, FIGS. 28-30), the “tumor growth compared to control” value is recorded as “reduced”. Moreover, the vessel density result in test [10] (tumor vasculature, FIG. 36) is given as “significant effect on vessel density”.

The values are drawn from US20070142433A1, “Angiogenesis-affecting compounds and methods of use thereof” (priority 2004, published 2007).
